We go through six compounds from EP0929545B1, “TRICYCLIC INHIBITORS OF FARNESYL PROTEIN TRANSFERASE” (SCHERING CORPORATION, priority 1996, dated 1998).

Each structure is given as a SMILES string. pIC50: −log10 of the molar value. Read-outs that look alike come from different tables or passages of the source.

Assay [1] concerns the target farnesyl protein transferase (Homo sapiens, UniProt P49354+P49356). The assay can be described thus: FPT IC50, inhibition of farnesyl protein transferase, in vitro enzyme assay. It counts as biochemical. The note with it: range stated jointly for the listed compounds. On the procedure:
(§1) FPT IC50 (inhibition of farnesyl protein transferase, in vitro enzyme assay) and COS Cell IC50 (Cell-Based Assay) were determined following the assay procedures described in WO 95/10516, published April 20, 1995. GGPT IC50 (inhibition of geranylgeranyl protein transferase, in vitro enzyme assay), Cell Mat Assay, and anti-tumor activity (in vivo anti-tumor studies) could be determined by the assay procedures described in WO 95/ 10516. The disclosure of WO 95/ 10516 is incorporated herein by reference thereto.

The next assay relates to COS Cell. Description: COS Cell IC50 (Cell-Based Assay). The note with it: range stated jointly for the listed compounds. As to the method:
as §1

The next assay concerns Human tumor cells. Description: Soft Agar Assay (anchorage-independent growth). It counts as cell-based. The following applies: range stated jointly for the listed compounds, upper end printed as >500. As to the method: Anchorage-independent growth is a characteristic of tumorigenic cell lines. Human tumor cells are suspended in growth medium containing 0.3% agarose and an indicated concentration of a farnesyl transferase inhibitor. The solution is overlayed onto growth medium solidified with 0.6% agarose containing the same concentration of farnesyl transferase inhibitor as the top layer. After the top layer is solidified, plates are incubated for 10-16 days at 37°C under 5% CO2 to allow colony outgrowth. After incubation, the colonies are stained by overlaying the agar with a solution of MTT (3-[4,5-dimethylthiazol-2-yl]-2,5-diphenyltetrazolium bromide, Thiazolyl blue) (1 mg/mL in PBS). Colonies can be counted and the IC50's can be determined.

[2] abbreviates: H-ras, read-out: FPT IC50 (H-ras).
The mark [3] stands for this setting: K-ras, read-out: FPT IC50 (K-ras).

The term pIC50 denotes −log10 of the IC50, conventionally taken in molar units. On to `CC(=O)OC[C@H]1O[C@@H](N2CCC(CC(=O)N3CCC([C@H]4c5ncc(Br)cc5CCc5cc(Cl)cc(Br)c54)CC3)CC2)[C@H](OC(C)=O)[C@@H](OC(C)=O)[C@@H]1OC(C)=O` [Compound 9.3, (+) -4-(3,10-dibromo-8-chloro-6,11-dihydro-5H-benzo[5,6]cyclohepta[1,2-b]pyridin-11-yl)-1-[[1-[2,3,4,6-tetra-O-acetyl-1-beta-D-glucopyranosyl]-4-piperidinyl]acetyl]piperidine], for which the pIC50 was 6.85 to 8.34 in assay [1] (setting [2]), 7.04 to 7.54 in assay [1] (setting [3]), 6.92 to 7.46 in the assay with COS Cell and at most 7.10 with Human tumor cells.

For the compound `O=C(CC1CCN(c2nnnn2-c2ccccc2)CC1)N1CCC([C@H]2c3ncc(Br)cc3CCc3cc(Cl)cc(Br)c32)CC1` [Compound 2.0], the negative-log IC50 (pIC50) in assay [1] (setting [2]) was 6.85 to 8.34.

In the case of `O=C(CC1CCN(c2nccs2)CC1)N1CCC([C@H]2c3ncc(Br)cc3CCc3cc(Cl)cc(Br)c32)CC1` [Compound 3.0], the pIC50 in assay [1] (setting [2]) was 6.85 to 8.34.

Take `O=C(CC1CCN(c2nc3ccccc3o2)CC1)N1CCC([C@H]2c3ncc(Br)cc3CCc3cc(Cl)cc(Br)c32)CC1` [Compound 4.0]: the results for the pIC50 (in assay [1] (setting [2]); in assay [1] (setting [3]); in the assay with COS Cell) were 6.85 to 8.34, 7.04 to 7.54 and 6.92 to 7.46, respectively.

With `O=C(CC1CCN(c2ccccn2)CC1)N1CCC([C@H]2c3ncc(Br)cc3CCc3cc(Cl)cc(Br)c32)CC1` [Compound 5.0], the pIC50 in assay [1] (setting [2]) was 6.85 to 8.34; in assay [1] (setting [3]), 7.04 to 7.54; with COS Cell it was 6.92 to 7.46; in the assay with Human tumor cells it was at most 7.10.

On to `O=C(CC1CCN(c2ncccn2)CC1)N1CCC([C@H]2c3ncc(Br)cc3CCc3cc(Cl)cc(Br)c32)CC1` [Compound 6.0], for which the pIC50 was 6.85 to 8.34 in assay [1] (setting [2]) and 6.92 to 7.46 in the assay with COS Cell.
